One data set concerns HIV-1 (NL4-3 strain). Briefly: Protection against HIV-1 (NL4-3 strain)-induced cytopathogenicity in MT-4 cells, MTT assay. It counts as cell-based. Conditions: 50% protection from HIV-1 (NL4-3 strain)-induced cytopathogenicity in MT-4 cells. As for the experimental part: (§1) The anti-HIV activity of the synthesized compounds was assessed based on their protection against HIV-1 (NL4-3 strain)-induced cytopathogenicity in MT-4 cells using an MTT assay.[29–33] The cytotoxicity of these compounds was determined based on reduction of the viability of MT-4 cells, as determined by an MTT assay. […] MKN-3 (2) was designed by in silico screening in the same way as MKN-1 (1), and in terms of ligand efficacy MKN-3 (2), with a London dG value of −9.555, has a higher binding affinity than MKN-1 (1), with a London dG value of −9.134, for a CA molecule. The anti-HIV activity of MKN-3 (2) however, is remarkably lower than that of MKN-1 (1). The reason for this might be the poor cell membrane permeability of MKN-3 (2), which therefore could not penetrate the cells. In general, the hydrophobicity of compounds is correlated to their cell membrane permeability. […] We investigated the design of derivatives more hydrophobic than MKN-3 (2). For the design of MKN-3 (2) derivatives, the docking model of MKN-3 (2) and a CA protein was constructed, and a site in the MKN-3 (2) molecule, whose relationship with the interaction with a CA protein is unknown, was sought (Fig. 3). […] Consequently, this amino group was modified by alkylation or amidation, and was converted into a methylene group. Six derivatives (17, 18, 19, TKB063 (25), 26 and 27), with octanoyl, 2-propylpentanoyl, 2-phenylacetyl, i-propyl, n-heptyl or benzyl groups, respectively on the secondary nitrogen atom of the homopiperazine ring of MKN-3 (2), were synthesized. A derivative (29), with a methylene group in place of the secondary amine of the homopiperazine ring, was prepared. […] It was assumed that the anti-HIV activity of these MKN-3 (2) derivatives was increased as a result of their improved hydrophobicity and cell membrane permeability. If the hydrophobicity of such derivatives is higher (log P > 2), the cytotoxicity is higher (CC50 < 10 μM). […] Thus, TKB063 (25) can be seen to have some advantages.
For virus preparation, 293T/17 cells (Invitrogen) maintained in Dulbecco's modified Eagle medium (DMEM) containing 10% FBS, in a T-75 flask were transfected with 10 μg of the pNL4-3 construct by the calcium phosphate method. The supernatant was collected 48 h after transfection, passed through a 0.45 μm filter, and stored at −80 °C as a stock virus.
(§2) The inhibitory activity of test compounds against X4-HIV-1 (NL4-3 strain)-induced cytopathogenicity in MT-4 cells,[83] which are maintained in RPMI-1640 containing 10% FBS, was assessed by an MTT assay. Various concentrations of test compound solutions were added to HIV-1-infected MT-4 cells at multiplicity of infection (MOI) of 0.001, and placed in wells of a 96-well microplate. The test compounds and the reference compounds, e.g. AZT, were diluted by factors of two or five, respectively. After 5 days' incubation at 37 °C in a CO2 incubator, the number of viable cells was determined by the MTT assay. Cytotoxicities of the test compounds were determined based on reduction of the viability of MT-4 cells measured in the MTT assay. A reverse transcriptase inhibitor, AZT, was purchased from Sigma Aldrich and employed as a positive control compound with anti-HIV activity.
Background: Cytopathic effects are the visible damage that an infection or toxin causes in cultured cells.

The nature of data set [1]: Cytotoxicity: reduction of the viability of MT-4 cells, MTT assay. It counts as cell-based. Particulars: human. As for the experimental part:
as §1, §2
Background: Formazan colour is commonly taken as a measure of viable cells.

In another data set the test system is HIV. Particulars: cited from earlier work.
The subject of a further data set is MT-4 cells. Description: Cytotoxicity: reduction of the viability of MT-4 cells, MTT assay. Conditions: Table 3; 50% reduction of the viability of MT-4 cells. It counts as cell-based. As for the experimental part:
as §1, §2

Setting [2] is: Human immunodeficiency virus 1, NL43, MT4, Table 4.
Setting [3] is: Table 4, 50% reduction of the viability of MT-4 cells, read-out: CC50.
Setting [4] is: Human immunodeficiency virus 1, NL43, MT4, Table 3.
Setting [5] is: Human immunodeficiency virus 1, NL43, MT4, Table 2.
[6] abbreviates: Table 2, 50% reduction of the viability of MT-4 cells, read-out: CC50.

Read-outs that look alike come from different tables or passages of the source. A value given as a limit tells only on which side of the number the result lay.

As usually defined, the EC50 is the concentration needed to bring the measured effect to its halfway point. Low readings indicate greater potency, high ones weaker potency. A word on the CC50: it is the concentration that lowers cell viability or growth by half. In turn, `CCC(C)N1CCCN([C@H](CCSC)C(=O)N2CCNCC2c2c[nH]c3ccccc23)CC1` (stereo partly drawn) [TON03 (38)] gave an EC50 in the data set on HIV-1 (NL4-3 strain) (setting [2]) of 6.3 µM. In data set [1] (setting [3]), the CC50 at 5 days was > 50 µM. Take `CSCCC(C(=O)N1CCNCC1c1c[nH]c2ccccc12)N1CCCN(C(C)C)CC1` (stereo not drawn) [TKB063A (25A)]: the half-maximal effective concentration (EC50) in the data set on HIV-1 (NL4-3 strain) (setting [4]) was 5 µM. The CC50 at 5 days in data set [1] (Table 3, 50% reduction of the viability of MT-4 cells, read-out: CC50) was > 50 µM. Regarding `CSCC[C@H](C)OC(=O)[C@@H](N)c1ccccc1-c1c[nH]c2ccccc12` [MKN-1 (1), reference compound], the concentration giving a half-maximal response (EC50) was 2.2 µM with HIV-1 (NL4-3 strain) (setting [5]) and 2.3 µM with HIV-1 (NL4-3 strain) (setting [4]). In addition, the cytotoxic concentration (CC50) at 5 days in data set [1] (setting [6]) stood at 15 µM. As to `CSCCC(C(=O)N1CCNCC1c1c[nH]c2ccccc12)N1CCCNCC1` (stereo not drawn) [MKN-3 (2)], the concentration for a half-maximal effect (EC50) in the data set on HIV-1 (NL4-3 strain) (setting [5]) is 42 µM; in the data set on HIV-1 (NL4-3 strain) (setting [4]) it was > 50 µM. Also, the CC50 at 5 days in data set [1] (setting [6]) was > 50 µM. `CSCC[C@H](C(=O)N1CCNCC1c1c[nH]c2ccccc12)N1CCCN(C(C)C)CC1` (stereo partly drawn) [TKB063 (25)]: the half-maximal effective concentration (EC50) in the data set on HIV-1 (NL4-3 strain) (setting [5]) amounted to 4.5 µM; in the data set with HIV-1 (NL4-3 strain) (setting [4]), 4.8 µM; in the data set on HIV-1 (NL4-3 strain) (setting [2]), 9.5 µM. Besides, in data set [1] (setting [6]), the CC50 at 5 days is > 50 µM. For the compound `CC(C)(C#Cc1ccc(-c2ccc(Cl)c3c(NS(C)(=O)=O)nn(CC(F)(F)F)c23)c([C@H](Cc2cc(F)cc(F)c2)NC(=O)Cn2nc(C(F)(F)F)c3c2C(F)(F)[C@@H]2C[C@H]32)n1)S(C)(=O)=O` [Lenacapavir], the IC50/EC50 with HIV (Capsid inhibitor, ref [71]) was 0.0001 µM. As to `CCCC(CCC)C(=O)N1CCCN([C@H](CCSC)C(=O)N2CCNCC2c2c[nH]c3ccccc23)CC1` (stereo partly drawn) [Compound 18], the half-maximal effective concentration (EC50) in the data set on HIV-1 (NL4-3 strain) (setting [5]) was > 9.1 µM. In addition, the CC50 at 5 days in data set [1] (setting [6]) stood at 9.1 µM.

`CSCC[C@H](C(=O)N1CCNCC1c1c[nH]c2ccccc12)N1CCCN(Cc2ccccc2)CC1` (stereo partly drawn) [Compound 27] came in with an EC50 in the data set on HIV-1 (NL4-3 strain) (setting [5]) of 2.4 µM. Moreover, the CC50 at 5 days in data set [1] (setting [6]) came out at 9 µM.

For `C[C@H]1CO[C@@H]2Cn3cc(C(=O)NCc4ccc(F)cc4F)c(=O)c(O)c3C(=O)N12` [Cabotegravir], the IC50/EC50 with HIV (Integrase inhibitor, ref [70]) is 0.00025 µM. Turning to Maraviroc, the IC90/EC90 result in the data set with HIV (CCR5 antagonist, ref [65]) is “(1.0 nM)”. Regarding `CSCC[C@H](C(=O)N1CCNCC1c1c[nH]c2ccccc12)N1CCCCCC1` (stereo partly drawn) [Compound 29], in the data set with HIV-1 (NL4-3 strain) (setting [5]), a half-maximal effect (EC50) was put at 10 µM. In addition, in data set [1] (setting [6]), the 50% cytotoxic concentration (CC50) at 5 days stood at 32 µM. Take “Enfuvirtide (T-20): Peptide, fusion inhibitor”: in the data set with HIV (Fusion inhibitor, ref [66]), the IC50/EC50 is 0.003 µM. As to `Cc1cn([C@H]2C[C@H](N=[N+]=[N-])[C@@H](CO)O2)c(=O)[nH]c1=O` [AZT, reference compound], the EC50 in the data set with HIV-1 (NL4-3 strain) (Table 2) amounted to 0.021 µM; in the data set with HIV-1 (NL4-3 strain) (Table 3), 0.025 µM; in the data set on HIV-1 (NL4-3 strain) (Table 4) it was 0.04 µM. Take `COc1cnc(-n2cnc(C)n2)c2c1c(C(=O)C(=O)N1CCN(C(=O)c3ccccc3)CC1)cn2COP(=O)(O)O` [Fostemsavir]: the IC50/EC50 in the data set on HIV (Entry inhibitor, ref [67]) was 0.0007 µM.

Take “Ibalizumab: Antibody, CD4 binding inhibitor”: the IC50/EC50 in the data set with HIV (CD4 binding inhibitor, ref [68]) was 0.00029 µM. The compound `CCCCCCCC(=O)N1CCCN([C@H](CCSC)C(=O)N2CCNCC2c2c[nH]c3ccccc23)CC1` (stereo partly drawn) [Compound 17] showed an EC50 in the data set with HIV-1 (NL4-3 strain) (setting [5]) of 6 µM. Also, the CC50 at 5 days in data set [1] (setting [6]) is 8.8 µM. In turn, `CCCN1CCCN([C@H](CCSC)C(=O)N2CCNCC2c2c[nH]c3ccccc23)CC1` (stereo partly drawn) [TON02 (37)] gave a concentration for a half-maximal effect (EC50) with HIV-1 (NL4-3 strain) (setting [2]) of 8 µM. Also, the 50% cytotoxic concentration (CC50) at 5 days in data set [1] (setting [3]) is > 50 µM. The compound `CCCCCCCN1CCCN([C@H](CCSC)C(=O)N2CCNCC2c2c[nH]c3ccccc23)CC1` (stereo partly drawn) [Compound 26] yielded an EC50 in the data set with HIV-1 (NL4-3 strain) (setting [5]) of 2.6 µM. For the same compound, the CC50 at 5 days in data set [1] (setting [6]) came out at 4.4 µM. Regarding `C=C(C)[C@@H]1CC[C@]2(NCCN3CCS(=O)(=O)CC3)CC[C@]3(C)[C@H](CC[C@@H]4[C@@]5(C)CC=C(C6=CC[C@@](CF)(C(=O)O)CC6)C(C)(C)[C@@H]5CC[C@]43C)[C@@H]12` [GSK3640254], the IC90/EC90 entry in the data set with HIV (Maturation inhibitor, ref [69]) is recorded as “(33 nM)”. Turning to `CCN1CCCN([C@H](CCSC)C(=O)N2CCNCC2c2c[nH]c3ccccc23)CC1` (stereo partly drawn) [TON01 (36)], in the data set on HIV-1 (NL4-3 strain) (setting [2]), the EC50 is 20 µM. In data set [1] (setting [3]), the half-maximal cytotoxic concentration (CC50) at 5 days was > 50 µM. Consider `CSCCC(C(=O)N1CCNCC1c1c[nH]c2ccccc12)N1CCCN(C(C)C)CC1` (stereo not drawn) [TKB063B (25B)], for which, in the data set on HIV-1 (NL4-3 strain) (Table 3), a half-maximal effect (EC50) was put at 7.4 µM. Moreover, the cytotoxic concentration (CC50) in the data set with MT-4 cells was > 50 µM. Compound `CSCC[C@H](C(=O)N1CCNCC1c1c[nH]c2ccccc12)N1CCCN(C(=O)Cc2ccccc2)CC1` (stereo partly drawn) [Compound 19] had an EC50 in the data set with HIV-1 (NL4-3 strain) (setting [5]) of 15 µM. In data set [1], this compound returned a 50% cytotoxic concentration (CC50) at 5 days of 33 µM.

(Values after PMC9834766, “Low-molecular-weight anti-HIV-1 agents targeting HIV-1 capsid proteins” (RSC Advances, 2023).)
